Reference: US20190002915A1, “COMPOSITIONS AND METHODS FOR REGULATABLE ANTIBODY EXPRESSION” (The Trustees of the University of Pennsylvania, priority 2015, published 2019)

Columns and labels:
[1] = tested on: Z12i promoter ffLuc reporter in HEK293 cells; experiment: ffLuc reporter induction under Z12i promoter in transfected HEK293 cells; type: cell-based; details: TF cis-plasmids plus Z12i-ffLuc reporter, rapamycin versus rapalog, all TF systems tested
Description: Cis plasmid constructs having the following elements, from 5′ to 3′ were constructed: promoter, nuclear localization signal (NLS), FRAPL (lipid kinase homolog having rapamycin binding domain), p65 of human NF-κB (transcriptional activation domain), IRES, zinc finger (DNA binding domain), 2 or 3 copies of FK506 binding protein as shown below, and a poly A.
These cis plasmids were tested for in HEK293 cells for the ability to induce expression of ffLuc reporter gene under the control of Z12i promoter, consisting of 12 ZFHD binding sites followed by minimal IL2 promoter. Briefly, HEK293 cells were transfected with cis-plasmids along with the reporter constructs. 24-72 hours post transfection, cells were treated with various concentrations of either rapamycin (sirolimus) or rapalog AP22594 as indicated in FIG. 5. Expression of ffLuc was assessed using dual luciferase detection kit from Promega according to manufacturer's instructions. […] Antibodies normally are secreted into supernatant buy the transfected cells. In this experiment, transfection was performed using lipofectamine according to the manufacturer's instructions, and induction was carried out the next day after transfection using indicated amounts of rapalog. At 72 hours post transfection, supernatants were harvested and expression of anti-SIV antibody was assessed using antigen specific ELISA or protein A ELISA. […]

[2] = IM AAV8 Z12i-immunoadhesin plus TF vectors in RAG KO mice, AP22594 induction, protein A ELISA; type: in vivo; details: post AAV8 administration
Description: RAG KO mice were purchased from Jackson labs. Z12i-2014A and TF plasmids were packaged into AAV8 vectors using triple transfection method. Vectors were titered using qPCR. […] First induction with AP22594 was carried out on day 13 after AAV8 administration. AP22594 was administered IP at a dose of 1 mg/kg. On day 21 post AAV8 administration, orbital bleeds were collected and the level of circulating 2011A antibody was measured by protein A ELISA. The data is presented on FIG. 8.

nasal airways = experiment: Intranasal AAV9 regulatable ffLuc expression in mice after rapamycin induction (IVIS imaging); type: in vivo, C57BL/6 mice
Description: AAV2/9.Z12i.ffLuc and AAV2/9.CMV.Tf were used in this example. These vectors were prepared as described in S J Chen et al, Hu Gene Therapy, 24: 270-278 (August 2013). AAV2/9.Z12i.ffLuc contains:
C57BL/6 mice (6 to 8 weeks of age) were purchased from Charles River Laboratories (Wilmington, Mass.) and kept under pathogen-free conditions at the Animal Facility of the Translational Research Laboratories. Mice were anesthetized using an intraperitoneal (IP) injection of ketamine/xylazine. For vector administrations, mice were inoculated intranasally (IN) with […] in the right and left nostril for a total dose of 10^11 genome copies (GC) in 25 μL. All animal procedures were approved by the Institutional Animal Care and Use Committees of the University of Pennsylvania.
Topical (IN) application: mice were anaesthetized with ketamine/xylazine and 5 mins later 5 μL of rapamycin solution for a total dose of 10 mg/kg was delivered to the right and left nostril IN. Systemic (IP) application: mice were physically restrained and injected IP with 50 μL of a 1 mg/mL rapamycin solution.
Mice were anaesthetized with ketamine/xylazine and 5 mins later 10 μL of 15 mg/ml D-luciferin (Caliper, USA) was delivered to the right and left nostril IN. Five mins later mice were imaged using the IVIS® Xenogen imaging system [Perkin-Elmer]. Quantitation of signal was calculated using the Living Image® 3.0 Software.
The level of gene expression achieved in the nasal airways following rapamycin induction was examined. Briefly, C57B1/6 mice (n=5/group) were dosed with 10^11 GC of both AAV2/9.Z12i.ffLuc and AAV2/9.CMV.Tf in a volume of 25 μL (12.5 μL per nostril). As negative controls, groups of mice were dosed with a) AAV2/9.Z12i.ffLuc alone, b) AAV2/9.CMV.Tf alone and c) PBS mice. As a positive control for the maximal expression of ffLuc, mice (n=5) were injected with AAV2/9.CMV.ffluc. To maximize the safety of the inducible vector system we opted to restrict expression to the nasal epithelium by delivering rapamycin topically (directly to the nose) or systemically (IP).

NHP eyes = experiment: Subretinal AAV8 regulatable antibody expression in NHP eyes (ELISA); type: in vivo, Macaca mulatta (rhesus monkeys); details: rapamycin IV
Description: For this experiment a 3 year old male Macaca mulatta (rhesus monkeys) was purchased from Covance Research Products, Inc.
For subretinal (SR) vector injections, a needle was inserted through a sclerotomy 2 mm posterior to the limbus at the 2 or 10 o'clock position. It was then advanced through the vitreous to penetrate the retina in the posterior pole. Under microscopic control, up to 100 μL of anterior chamber fluid was removed and 150 μL of viral vector solution diluted in phosphate buffered saline (PBS) was injected into the subretinal space, thereby raising a dome-shaped retinal detachment (bleb). The detachment covered a small fraction (approximately ⅛th) of the area of the retina in the macula. The NHP received AAV8 vectors injected subretinally into the left (OS) and right (OD) eyes. The two vectors that were injected were: AAV2/8.CMV.TF1Nc (alternate name for AAV2/8.CMV.TF) and AAV2/8.Z12i.AbH.FF2A.AbL.BGH. The vectors were mixed at 1:1 ratio at 10^11 GC and delivered SR in a total volume of 150 μL.
Macaques were induced at various times following the SR vector injection. Rapamycin (2 mg/kg) was delivered IV in a solution of 1.2% Tween 80, 27.1% Polyethylene Glycol, 71.7% Nuclease Free Water. At designated times post vector delivery, a tap was performed on the OD eye (baseline) and the NHP then injected IV with 2 mg/kg rapamycin. […]

[3] = stated as consistent with the time frame of decline; cited from earlier work
[4] = three separate IN rapamycin inductions over three months

With `COC1CC2CCC(C)C(O)(O2)C(=O)C(=O)N2CCCCC2C(=O)OC(C(C)CC2CCC(O)C(OC)C2)CC(=O)C(C)C=C(C)C(O)C(OC)C(=O)C(C)CC(C)C=CC=CC=C1C` (stereo not drawn) [AP22594, 28-epi-rapamycin] the “induction of transgene (ffLuc) expression” value [1] was “comparable levels of induction of transgene expression”, the “day induced expression returned to barely detectable” value [2] was 49 days and the “day induced expression started to decline” value [2] was 35 days. The “day of peak induced expression” value ([2]; data not shown) was 28 days.

With `CO[C@H]1C[C@@H]2CC[C@@H](C)[C@@](O)(O2)C(=O)C(=O)N2CCCC[C@H]2C(=O)O[C@H]([C@H](C)C[C@@H]2CC[C@@H](O)[C@H](OC)C2)CC(=O)[C@H](C)/C=C(\C)[C@@H](O)[C@@H](OC)C(=O)[C@H](C)C[C@H](C)/C=C/C=C/C=C/1C` [rapamycin] the “time for ffLuc expression to reach background levels” value (nasal airways; IN or IP rapamycin induction) was at most 7 days, the “time until which ffLuc expression remained stable” value (nasal airways; IN or IP rapamycin induction) was 48 h and the “time to maximal ffLuc expression after induction” value (nasal airways; IN or IP rapamycin induction, AAV2/9.Z12i.ffLuc plus AAV2/9.CMV.Tf IN) was at most 24 h. The “signs of behavioral distress” value (nasal airways; rapamycin delivered to the nose or systemically) was “did not exhibit any signs of behavioral distress”, the “time at which expression began to decline” value (nasal airways; [4]) was 72 h and the “time to maximal induction” value (nasal airways; [4]) was at most 24 h. The “time to which induction was stable” value (nasal airways; [4]) was 48 h, the “time to wane to background undetectable levels” value (NHP eyes) was at most 3 months and the “peak of antibody expression post induction” value (NHP eyes; several inductions over 4 years) was 14 days.

B1: 2011A antibody: immunoadhesin expressed from the Z12i construct in AAV8 (protein)
chain: EVQLLESGPGLVKPSETLSLTCAVSGLSISSDFSWAWIRQTPGKALEYVGYIRGNTGDTYYNPSLKSRLTISKDTSKNQIYLNLSSVTAGDAAVYYCARDRVCDDDYGYYYTEVCFGLDSWGQGIVVTVSSGGGGSGGGGSGGGGSAELVMTQSPLSLSVAPGQTASISCRSSQSLDYANGNTYLSWFHQRPGQPPRRLIYQISNRDSGVPDRFSGSGAGTEFTLRISRMESDDVGIYYCGQGTTFPRTFGQGTKVEIKTCGGGSKPPTCPPCTSPELLGGPSVFLFPPKPKDTLMISRTPEVTCVVVDVSQEDPDVKFNWYVNGAEVHHAQTKPRETQYNSTYRVVSVLTVTHQDWLNGKEYTCKVSNKALPAPIQKTISKDKGQPREPQVYTLPPSREELTKNQVSLTCLVKGFYPSDIVVEWESSGQPENTYKTTPPVLDSDGSYFLYSKLTVDKSRWQQGNVFSCSVMHEALHNHYTQKSLSLSPGK
For B1, the antibody half-life [3] is given as 1-2 weeks.
